Assay results published in patent publication US7041785B1, “B1-bradykinin receptor antagonists and use thereof” (Université de Sherbrooke, priority 1996, dated 2006).
Non-standard residues stand in square brackets, D forms with d. Residues, ends and D or L forms follow the SMILES beside them. d2Nal = N[C@H](Cc1ccc2ccccc2c1)C(=O)O; dTic = O=C(O)[C@H]1Cc2ccccc2CN1; Sar = CNCC(=O)O

Experiments:
B2 receptor = molecular target: T1, B2 receptor (Oryctolagus cuniculus, UniProt Q28642); conditions: vs BK; captopril 1 μmol/L; Inactive = no detectable antagonistic effect at ≦ 10 μg/ml
T1 sequence (Q28642 1-367): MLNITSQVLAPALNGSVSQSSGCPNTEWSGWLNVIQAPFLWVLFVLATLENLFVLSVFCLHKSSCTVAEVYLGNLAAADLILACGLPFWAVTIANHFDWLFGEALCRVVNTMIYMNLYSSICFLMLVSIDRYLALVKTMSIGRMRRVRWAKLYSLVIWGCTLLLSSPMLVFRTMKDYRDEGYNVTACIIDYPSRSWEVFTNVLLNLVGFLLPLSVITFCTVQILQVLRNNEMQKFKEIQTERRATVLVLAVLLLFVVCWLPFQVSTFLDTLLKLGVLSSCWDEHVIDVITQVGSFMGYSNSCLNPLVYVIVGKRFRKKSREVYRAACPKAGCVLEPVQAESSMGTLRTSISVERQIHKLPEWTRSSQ

human B1 receptor = molecular target: T2, human B1 receptor (Homo sapiens, UniProt P46663); assay: cell-based
T2 sequence (P46663 1-353): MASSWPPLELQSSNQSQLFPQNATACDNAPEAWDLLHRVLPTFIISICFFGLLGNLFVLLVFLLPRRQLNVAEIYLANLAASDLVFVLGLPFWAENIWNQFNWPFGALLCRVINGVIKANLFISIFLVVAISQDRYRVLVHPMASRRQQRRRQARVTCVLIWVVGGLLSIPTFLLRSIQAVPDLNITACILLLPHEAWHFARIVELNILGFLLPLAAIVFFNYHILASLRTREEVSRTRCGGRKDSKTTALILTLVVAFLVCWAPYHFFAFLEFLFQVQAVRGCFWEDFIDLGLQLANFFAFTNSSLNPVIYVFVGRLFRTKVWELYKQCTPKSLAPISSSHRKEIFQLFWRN
Method in brief: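 Isolated rabbit jugular vein (captopril 1 μmol/L), guinea pig ileum, endothelium-free rabbit aorta and human umbilical vein, in Krebs at 37 °C, with isometric tension recorded. Agonism was tested at 10 μg/mL.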

| SMILES | Rb.J.V. pA2 (B2 receptor) | Kb (human B1 receptor) |
| --- | --- | --- |
| CNCC(=O)N[C@@H](CCCNC(=N)N)C(=O)N1CCC[C@H]1C(=O)N1CCC[C@H]1C(=O)NCC(=O)N[C@@H](Cc1ccccc1)C(=O)N[C@@H](CO)C(=O)N1Cc2ccccc2C[C@@H]1C(=O)N[C@@H](CC(C)C)C(=O)O [Compound 9, Sar(D-Tic^7, Leu^8)desArg^9BK] (H-[Sar]RPPGFS[dTic]L-OH; N-terminus and C-terminus assumed) | Inactive |  |
| CC[C@H](C)[C@H](NC(=O)[C@@H](Cc1ccc2ccccc2c1)NC(=O)[C@H](CO)NC(=O)[C@H](Cc1ccccc1)NC(=O)CNC(=O)[C@@H]1CCCN1C(=O)[C@@H]1CCCN1C(=O)[C@H](CCCN=C(N)N)NC(=O)[C@H](CCCCN)NC(C)=O)C(=O)O [Compound 19, AcLys(D-βNal^7, Ile^8)desArg^9BK] (Ac-KRPPGFS[d2Nal]I-OH) |  | 3.16 nM |
| CC(=O)N[C@@H](Cc1ccc(O)cc1)C(=O)NCCCCCC(=O)N[C@@H](CCCCN)C(=O)N[C@@H](CCCNC(=N)N)C(=O)N1CCC[C@H]1C(=O)N1CCC[C@H]1C(=O)NCC(=O)N[C@@H](Cc1ccccc1)C(=O)N[C@@H](CO)C(=O)N1CCC[C@H]1C(=O)N[C@@H](CC(C)C)C(=O)O [Compound 27, AcTyrεAhxLys(Leu^8)desArg^9BK] | Inactive |  |
| CNCC(=O)N[C@@H](Cc1ccc(O)cc1)C(=O)NCCCCCC(=O)N[C@@H](CCCCN)C(=O)N[C@@H](CCCNC(=N)N)C(=O)N1CCC[C@H]1C(=O)N1CCC[C@H]1C(=O)NCC(=O)N[C@@H](Cc1ccccc1)C(=O)N[C@@H](CO)C(=O)N1CCC[C@H]1C(=O)N[C@@H](CC(C)C)C(=O)O [Compound 28, SarTyrεAhxLys(Leu^8)desArg^9BK] | Inactive |  |
